Target: T1, AUX1 (Arabidopsis thaliana, UniProt Q96247)
T1 sequence (Q96247 1-485): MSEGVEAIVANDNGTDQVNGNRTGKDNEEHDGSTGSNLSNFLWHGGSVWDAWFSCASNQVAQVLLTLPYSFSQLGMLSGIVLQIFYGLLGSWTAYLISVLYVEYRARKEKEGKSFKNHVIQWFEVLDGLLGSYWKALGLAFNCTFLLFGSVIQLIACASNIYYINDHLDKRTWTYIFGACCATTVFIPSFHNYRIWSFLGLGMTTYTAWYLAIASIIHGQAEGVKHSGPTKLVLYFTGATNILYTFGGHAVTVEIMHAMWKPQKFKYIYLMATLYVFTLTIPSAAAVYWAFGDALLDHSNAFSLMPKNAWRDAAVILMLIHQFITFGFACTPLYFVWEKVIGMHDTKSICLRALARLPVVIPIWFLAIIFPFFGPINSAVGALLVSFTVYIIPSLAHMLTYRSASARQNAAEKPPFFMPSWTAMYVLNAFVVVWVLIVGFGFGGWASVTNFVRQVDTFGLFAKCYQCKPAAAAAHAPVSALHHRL
Experiment: inhibition of [3H]IAA uptake in AUX1-expressing HEK293T cells
Format: cell-based
Details: about 30 nM [3H]IAA, pH 6.0, 37 °C, 10 min

Row | SMILES | % relative auxin accumulation at 50 μM inhibitor
1 | O=C(O)COc1cccc2ccccc12 [1-NOA, 1-naphthoxyacetic acid] | reduced the uptake of [^3H]IAA in AUX1-expressing HEK293T cells
2 | O=C(O)COc1ccc2ccccc2c1 [2-NOA, 2-naphthoxyacetic acid] | reduced the uptake of [^3H]IAA in AUX1-expressing HEK293T cells
3 | O=C(O)Cc1ccc(O)c(Cl)c1 [CHPAA, 3-chloro-4-hydroxyphenylacetic acid] | reduced the uptake of [^3H]IAA in AUX1-expressing HEK293T cells
